Reference: ChEMBL document CHEMBL5550143, “Modulation of proteasome subunit selectivity of syringolins” (Bioorg Med Chem, 2024)
Active and inactive are the calls of the source. No cut-off for these calls is given here.

Tests used:
[1] = test system: LNCaP; experiment: Cytotoxicity against human LNCaP cells incubated for 72 hrs by CCK8 assay
[2] = target: T1, Proteasome Macropain subunit MB1 (Homo sapiens, UniProt P28074); experiment: Inhibition of 20S proteasome beta-5 in human erythrocytes using Suc-LLVY-AMC as substrate by AK-740 assay; set-up: species or system Erythrocyte
T1 sequence (P28074 whole entry): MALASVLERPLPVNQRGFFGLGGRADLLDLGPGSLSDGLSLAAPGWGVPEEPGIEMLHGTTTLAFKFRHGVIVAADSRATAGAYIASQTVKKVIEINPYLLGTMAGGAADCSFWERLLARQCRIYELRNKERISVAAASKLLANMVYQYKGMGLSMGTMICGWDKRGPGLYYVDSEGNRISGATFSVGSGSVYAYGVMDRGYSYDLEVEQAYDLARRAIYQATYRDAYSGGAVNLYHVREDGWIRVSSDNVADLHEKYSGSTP

[3] = test system: DU-145; experiment: Cytotoxicity against human DU-145 cells incubated for 72 hrs by CCK8 assay; settings: DU-145, 72 h
[4] = target: T2, Proteasome component C5 (Homo sapiens) (UniProt P20618); experiment: Inhibition of 20S proteasome beta-1 (unknown origin) upto 150 uM
T2 sequence (whole entry): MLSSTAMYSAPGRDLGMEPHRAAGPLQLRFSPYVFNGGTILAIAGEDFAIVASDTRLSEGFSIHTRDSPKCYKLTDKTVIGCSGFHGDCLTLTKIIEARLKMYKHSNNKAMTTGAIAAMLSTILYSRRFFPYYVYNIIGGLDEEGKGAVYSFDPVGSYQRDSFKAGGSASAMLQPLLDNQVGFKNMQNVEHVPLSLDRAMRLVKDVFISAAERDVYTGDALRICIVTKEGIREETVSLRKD

[5] = test system: MM1.S; experiment: Cytotoxicity against human MM1.S cells; format: functional, cell-based

Compound	IC50 [1]	Ki [2]	IC50 [3]	inhibition [4]	IC50 [5]
CCCCCCCCCC(=O)N[C@@H](Cc1ccccc1)C(=O)N[C@H]1CCCCNC(=O)/C=C/[C@H](CCC(=O)O)NC1=O	> 1000 nM	> 10000 nM	> 1000 nM	–	–
CC(C)[C@H](NC(=O)N[C@H](C(=O)N[C@H]1CCCCNC(=O)/C=C/[C@H](C(C)C)NC1=O)C(C)C)C(=O)O	–	–	–	inactive	–
CCCCCCCCCC(=O)N[C@@H](Cc1ccccc1)C(=O)N[C@H]1CCCCNC(=O)/C=C/[C@H](Cc2ccc(OC)cc2)NC1=O	116 nM	–	487 nM	–	–
CCCCCCCCCC(=O)N[C@@H](Cc1ccccc1)C(=O)N[C@H]1CCCCNC(=O)/C=C/[C@H](Cc2ccc(NC(=N)N)cc2)NC1=O	> 1000 nM	–	> 1000 nM	–	–
CCCCCCCCCC(=O)N[C@@H](Cc1ccccc1)C(=O)N[C@H]1CCCCNC(=O)/C=C/[C@H](Cc2ccc(C(=O)O)cc2)NC1=O	> 1000 nM	–	> 1000 nM	–	–
CCCCCCCCCC(=O)N[C@@H](Cc1ccccc1)C(=O)N[C@H]1CCCCNC(=O)/C=C/[C@H](Cc2ccc(O)cc2)NC1=O	575 nM	–	> 1000 nM	–	–
CCCCCCCCCC(=O)N[C@@H](Cc1ccccc1)C(=O)N[C@H]1CCCCNC(=O)/C=C/[C@H](Cc2ccc(CN(C)C)cc2)NC1=O	> 1000 nM	–	> 1000 nM	–	–
CCCCCCCCCC(=O)N[C@@H](Cc1ccccc1)C(=O)N[C@H]1CCCCNC(=O)/C=C/[C@H](CC(=O)O)NC1=O	> 1000 nM	–	> 1000 nM	–	–
CCCCCCCCCC(=O)N[C@@H](Cc1ccccc1)C(=O)N[C@H]1CCCCNC(=O)/C=C/[C@H](Cc2ccc([N+](=O)[O-])cc2)NC1=O	> 1000 nM	–	> 1000 nM	–	–
CCCCCCCCCC(=O)N[C@@H](Cc1ccccc1)C(=O)N[C@H]1CCCCNC(=O)/C=C/[C@H](Cc2ccc(CN)cc2)NC1=O	> 1000 nM	–	> 1000 nM	–	–
CCCCCCCCCC(=O)N[C@@H](Cc1ccccc1)C(=O)N[C@H]1CCCCNC(=O)/C=C/[C@H](Cc2ccc(NC)cc2)NC1=O	103 nM	–	142 nM	–	–
CCCCCCCCCC(=O)N[C@@H](Cc1ccccc1)C(=O)N[C@H]1CCCCNC(=O)/C=C/[C@H](Cc2ccc(C#N)cc2)NC1=O	920 nM	–	> 1000 nM	–	–
CCCCCCCCCC(=O)N[C@@H](Cc1ccccc1)C(=O)N[C@H]1CCCCNC(=O)/C=C/[C@H](Cc2ccc(C(N)=O)cc2)NC1=O	> 1000 nM	–	> 1000 nM	–	–
CCCCCCCCCC(=O)N[C@@H](Cc1ccccc1)C(=O)N[C@H]1CCCCNC(=O)/C=C/[C@H](C(C)C)NC1=O	91.2 nM	–	119 nM	–	–
CCCCCCCCCC(=O)N[C@@H](Cc1ccccc1)C(=O)N[C@H]1CCCCNC(=O)/C=C/[C@H](Cc2ccc(N)cc2)NC1=O	181 nM	–	292 nM	–	–
CC(C)[C@H](NC(=O)N[C@H](C(=O)N[C@H]1/C=C/CCNC(=O)/C=C/[C@H](C(C)C)NC1=O)C(C)C)C(=O)O	–	–	–	–	8500 nM
CCCCCCCCCC(=O)N[C@@H](Cc1ccccc1)C(=O)N[C@H]1CCCCNC(=O)/C=C/[C@H](Cc2ccccc2)NC1=O	43.5 nM	–	49.1 nM	–	–
CCCCCCCCCC(=O)N[C@@H](Cc1ccccc1)C(=O)N[C@H]1CCCCNC(=O)/C=C/[C@H](Cc2ccc(B(O)O)cc2)NC1=O	882 nM	–	723 nM	–	–
CCCCCCCCCC(=O)N[C@@H](Cc1ccccc1)C(=O)N[C@H]1CCCCNC(=O)/C=C/[C@H](Cc2ccc(CC(=N)N)cc2)NC1=O	> 1000 nM	–	> 1000 nM	–	–
CCCCCCCCCC(=O)N[C@@H](Cc1ccccc1)C(=O)N[C@H]1CCCCNC(=O)/C=C/[C@H](Cc2ccc(N(C)C)cc2)NC1=O	94 nM	–	101 nM	–	–
